Measurements taken from patent US4929639A, “Oxygen-containing heterocyclic compound” (Fujisawa Pharmaceutical Company, Ltd., priority 1988, dated 1990).

System: rabbit platelet
Experiment: Effect on 9,11-azo PGH2 induced aggregation of rabbit platelet in vitro
Format: cell-based
Conditions: Oryctolagus cuniculus, rabbit PRP, 9,11-azo PGH2 final 1.0 μM, 37° C., 2 minutes preincubation, read-out: IC50 (Inhibition concentration of platelet aggregation by 50%)
Description: In the following tests, the used 9, 11-azo PGH2 and 9,11-methanoepoxy PGH2 (U46619) are characterized pharmacologically as TXA2 mimetic agents and widely used for evaluating TXA2 antagonism of test compounds (for example, vida The Journal of Pharmacology and Experimental Therapeutics Vol. 234, pp 435-441).
Test 1 (Effect on 9,11-azo PGH2 induced aggregation of rabbit platelet in vitro)
In the in vitro experiments, the blood was collected from the carotid artery of rabbits into plastic vessels containing 0.1 volume of 3.8% aqueous sodium citrate. Platelet rich plasma (PRP) was prepared by centrifugation at 150 g for 15 minutes. Platelet aggregation was investigated using the turbidometric method with an aggregometer (NKK HEMATRACER 1). To the 225 μl of PRP, 25 μl of test compound solution was added, and then stirred at 1000 rpm for 2 minutes at 37° C. To the solution, 5 μl of 9,11-azo PGH2 (final 1.0 μM) was added as an aggregating inducer. IC50 (Inhibition concentration of platelet aggregation by 50%) were graphically determined.

IC50: 260 nM
SMILES: C[C@@H]1OC[C@H](C/C=C\CCCC(=O)O)[C@H](C=NNC(=O)Nc2ccccc2)O1 [Test compound 2]
